Experimental data from the NIST ThermoML archive (doi:10.1016/j.tca.2009.10.001).
Numbers after ± are expanded uncertainties.

Assays:
[1] = Liquid; for viscosity: Capillary tube (Ostwald / Ubbelohde) method; for speed of sound: Linear variable-path acoustic interferometer; for mass density: Pycnometric method
[2] = xn = mol fraction of the nth substance listed; details: 101 kPa, Liquid, x1 = 1; for viscosity: Capillary tube (Ostwald / Ubbelohde) method; for speed of sound: Linear variable-path acoustic interferometer; for mass density: Pycnometric method

`Cc1ccccc1` [toluene] showed a viscosity ([1]; 298.15 K, 101 kPa) of 0.5635 ± 0.0056 mPa·s, a speed of sound ([1]; 298.15 K, 101 kPa) of 1299.8 ± 1.5 m/s and a mass density ([1]; 298.15 K, 101 kPa) of 860.9 ± 0.3 kg/m3. It also gave a viscosity ([1]; 303.15 K, 101 kPa) of 0.5344 ± 0.0055 mPa·s, a speed of sound ([1]; 303.15 K, 101 kPa) of 1279.5 ± 1.5 m/s and a mass density ([1]; 303.15 K, 101 kPa) of 856 ± 0.3 kg/m3. For the same compound, the viscosity ([1]; 308.15 K, 101 kPa) was 0.5091 ± 0.0054 mPa·s, the speed of sound ([1]; 308.15 K, 101 kPa) was 1260.7 ± 1.5 m/s and the mass density ([1]; 308.15 K, 101 kPa) was 851.6 ± 0.3 kg/m3.

`CCCC#N` [butanenitrile] gave a viscosity ([1]; 298.15 K, 101.33 kPa) of 0.5463 ± 0.0061 mPa·s, a speed of sound ([1]; 298.15 K, 101.33 kPa) of 1271.4 ± 1.8 m/s and a mass density ([1]; 298.15 K, 101.33 kPa) of 784.7 ± 0.3 kg/m3. For the same compound, the viscosity ([1]; 303.15 K, 101.33 kPa) was 0.5255 ± 0.006 mPa·s, the speed of sound ([1]; 303.15 K, 101.33 kPa) was 1252.2 ± 1.8 m/s and the mass density ([1]; 303.15 K, 101.33 kPa) was 780.3 ± 0.4 kg/m3. For the same compound, the viscosity ([1]; 308.15 K, 101.33 kPa) was 0.5049 ± 0.0059 mPa·s, the speed of sound ([1]; 308.15 K, 101.33 kPa) was 1233.9 ± 1.7 m/s and the mass density ([1]; 308.15 K, 101.33 kPa) was 775.9 ± 0.4 kg/m3.

Compound `CC#N` [acetonitrile] has a viscosity ([1]; 298.15 K, 101.33 kPa) of 0.3696 ± 0.0053 mPa·s, a speed of sound ([1]; 298.15 K, 101.33 kPa) of 1271.3 ± 1.8 m/s and a mass density ([1]; 298.15 K, 101.33 kPa) of 775.3 ± 0.3 kg/m3. The viscosity ([1]; 303.15 K, 101.33 kPa) was 0.3554 ± 0.0052 mPa·s, the speed of sound ([1]; 303.15 K, 101.33 kPa) was 1251.9 ± 1.8 m/s and the mass density ([1]; 303.15 K, 101.33 kPa) was 769.9 ± 0.3 kg/m3. It also gave a viscosity ([1]; 308.15 K, 101.33 kPa) of 0.3414 ± 0.0052 mPa·s, a speed of sound ([1]; 308.15 K, 101.33 kPa) of 1231.7 ± 1.7 m/s and a mass density ([1]; 308.15 K, 101.33 kPa) of 764.7 ± 0.4 kg/m3.

`Cc1ccccc1` [toluene] + CCC#N showed a viscosity ([2]; 298.15 K) of 0.5635 ± 0.0056 mPa·s, a speed of sound ([2]; 298.15 K) of 1299.8 ± 1.5 m/s and a mass density ([2]; 298.15 K) of 860.9 ± 0.3 kg/m3. For the same compound, the viscosity ([2]; 303.15 K) was 0.5344 ± 0.0055 mPa·s, the speed of sound ([2]; 303.15 K) was 1279.5 ± 1.5 m/s and the mass density ([2]; 303.15 K) was 856 ± 0.3 kg/m3. It also gave a viscosity ([2]; 308.15 K) of 0.5091 ± 0.0054 mPa·s, a speed of sound ([2]; 308.15 K) of 1260.7 ± 1.5 m/s and a mass density ([2]; 308.15 K) of 851.6 ± 0.3 kg/m3.

`CCC#N` [propanenitrile] gave a viscosity ([1]; 298.15 K, 101.33 kPa) of 0.4107 ± 0.0055 mPa·s, a speed of sound ([1]; 298.15 K, 101.33 kPa) of 1252.4 ± 1.8 m/s and a mass density ([1]; 298.15 K, 101.33 kPa) of 775.4 ± 0.3 kg/m3. The viscosity ([1]; 303.15 K, 101.33 kPa) was 0.3991 ± 0.0054 mPa·s, the speed of sound ([1]; 303.15 K, 101.33 kPa) was 1232.7 ± 1.7 m/s and the mass density ([1]; 303.15 K, 101.33 kPa) was 769.9 ± 0.3 kg/m3. For the same compound, the viscosity ([1]; 308.15 K, 101.33 kPa) was 0.3822 ± 0.0053 mPa·s, the speed of sound ([1]; 308.15 K, 101.33 kPa) was 1213.7 ± 1.7 m/s and the mass density ([1]; 308.15 K, 101.33 kPa) was 765.2 ± 0.4 kg/m3.

In the case of `Cc1ccccc1` [toluene] + CC#N, the viscosity ([2]; 298.15 K) is reported as 0.5635 ± 0.0056 mPa·s, the speed of sound ([2]; 298.15 K) is reported as 1299.8 ± 1.5 m/s and the mass density ([2]; 298.15 K) is reported as 860.9 ± 0.3 kg/m3. The viscosity ([2]; 303.15 K) was 0.5344 ± 0.0055 mPa·s, the speed of sound ([2]; 303.15 K) was 1279.5 ± 1.5 m/s and the mass density ([2]; 303.15 K) was 856 ± 0.3 kg/m3. For the same compound, the viscosity ([2]; 308.15 K) was 0.5091 ± 0.0054 mPa·s, the speed of sound ([2]; 308.15 K) was 1260.7 ± 1.5 m/s and the mass density ([2]; 308.15 K) was 851.6 ± 0.3 kg/m3.

`Cc1ccccc1` [toluene] + CCCC#N gave a viscosity ([2]; 298.15 K) of 0.5635 ± 0.0056 mPa·s, a speed of sound ([2]; 298.15 K) of 1299.8 ± 1.5 m/s and a mass density ([2]; 298.15 K) of 860.9 ± 0.3 kg/m3. For the same compound, the viscosity ([2]; 303.15 K) was 0.5344 ± 0.0055 mPa·s, the speed of sound ([2]; 303.15 K) was 1279.5 ± 1.5 m/s and the mass density ([2]; 303.15 K) was 856 ± 0.3 kg/m3. It also gave a viscosity ([2]; 308.15 K) of 0.5091 ± 0.0054 mPa·s, a speed of sound ([2]; 308.15 K) of 1260.7 ± 1.5 m/s and a mass density ([2]; 308.15 K) of 851.6 ± 0.3 kg/m3.
